The record followed here is patent EP4782437A1, “HETEROARYL COMPOUND, AND PREPARATION METHOD THEREFOR AND USE THEREOF IN MEDICINE” (Jiangsu Hengrui Pharmaceuticals Co., Ltd., priority 2023, dated 2025).

Read-outs that look alike come from different tables or passages of the source.

For the assay, the target named is T1, BTK recombinant human protein (Homo sapiens, UniProt Q06187).
T1 construct: purchased Thermo PV3363
Put plainly: Inhibitory activity against BTK (HTRF KinEASE-TK kit). In kind it is biochemical. The method, then:
Test example 1: Inhibitory activity of compounds of the present disclosure against BTK • I. Experimental materials and instruments • 1. BTK recombinant human protein (Thermo, PV3363) • 2. HTRF KinEASE-TK kit (Cisbio, 62TK0PEC) • 3. 1 M MgCl2 (Thermo, AM9530G) • 4. 1 M MnCl2 (Sigma, M1787-100ML) • 5. Adenosine 5'-triphosphate (ATP) (New England Biolabs, P0756L) • 6. DTT 2M (Sangon Biotech, B645939) • 7. Ultrapure water (Invitrogen, 10977-015) • 8. OptiPlate-384, white opaque 384-well microplate (PerkinElmer, 6007290) • 9. 96-well round-bottom plate (Corning, 3788) • 10. Biochemical incubator (Shanghai Boxun Medical & Biological Instruments Co., Ltd., BSP-100) • 11. 15-mL centrifuge tube (Corning) • 12. Benchtop high-speed centrifuge (Changsha Yingtai Instrument Co., Ltd., TD4N) • 13. Multifunctional microplate reader (PerkinElmer, EnVision) • 14. Bravo liquid handling platform (Agilent Technologies, SGC120TH34702) • II. Experimental procedure
The HTRF KinEASE-TK kit is designed to detect changes in BTK enzyme activity based on two technologies, i.e., fluorescence resonance energy transfer and time-resolved fluorescence. The kit is operated in two stages: 1) enzyme reaction stage: the enzyme reaction is initiated by adding ATP, where the enzyme phosphorylates the substrate, and the compounds are then added to competitively bind to BTK against ATP, thereby inhibiting substrate phosphorylation; and 2) detection stage: after the enzyme reaction is complete, a detection reagent is added to terminate the reaction. Different groups on the phosphorylated substrate bind to the energy donor and energy acceptor, respectively, bringing the two into close proximity. During the instrumental readout, the energy donor is excited by an external light source, which enables resonance energy transfer to the proximal energy acceptor. The acceptor, in turn, becomes excited and emits light at a specific wavelength. Thus, changes in enzyme activity can be detected by measuring the signal values, and the inhibition rate of the compounds against the target enzyme can be calculated, thereby evaluating the inhibitory effect of the compounds on BTK enzyme activity.
Preparation of enzyme reaction buffer: 5× Kinase Buffer was diluted 5-fold with ultrapure water, and then the stock solutions of MgCl2, MnCl2 and DTT were added. The final composition of the buffer was as follows: 1× Kinase Buffer, 10 mM MgCl2, 1 mM MnCl2, and 1 mM DTT.
Preparation of 5 × BTK working solution: The BTK (5.17 µM) stock solution was removed from -20°C storage. Given that the BTK concentration in the enzyme reaction system was 2 nM and the concentration of the 5× working solution was 10 nM, the BTK stock solution was diluted 517-fold with the enzyme reaction buffer according to the volume required for the experiment. The diluted solution was then added to the 384-well plate at 2 µL per well. The plate was placed in a plate spinner and centrifuged at 2000 rpm for 1 minute to bring the liquid to the bottom of the wells.
[…]. Given that the SEB concentration in the enzyme reaction system was 50 nM and the concentration of the 5× working solution was 250 nM, the SEB stock solution was diluted 10-fold with the enzyme reaction buffer according to the volume required for the experiment. The diluted solution was then added to the 384-well plate at 2 µL per well. The plate was placed in a plate spinner and centrifuged at 2000 rpm for 1 minute to bring the liquid to the bottom of the wells.
The test compounds dissolved in 100% DMSO at 20 mM were diluted with 100% DMSO to a concentration of 200 µM, which represents the 200× concentration of the highest compound concentration point in the reaction system. The compounds at this concentration were then subjected to 10-point 3-fold serial dilution with 100% DMSO. The positive control wells and negative control wells were set with 100% DMSO. […]
On the technique in general: TR-FRET usually uses a lanthanide donor and a delayed reading to cut background.

Setting [1] is: read-out: IC50 values of inhibitory activity against BTK; 2 nM BTK, 10 µM ATP, 0.5 hours preincubation at 25°C.

T1 sequence (Q06187 whole entry): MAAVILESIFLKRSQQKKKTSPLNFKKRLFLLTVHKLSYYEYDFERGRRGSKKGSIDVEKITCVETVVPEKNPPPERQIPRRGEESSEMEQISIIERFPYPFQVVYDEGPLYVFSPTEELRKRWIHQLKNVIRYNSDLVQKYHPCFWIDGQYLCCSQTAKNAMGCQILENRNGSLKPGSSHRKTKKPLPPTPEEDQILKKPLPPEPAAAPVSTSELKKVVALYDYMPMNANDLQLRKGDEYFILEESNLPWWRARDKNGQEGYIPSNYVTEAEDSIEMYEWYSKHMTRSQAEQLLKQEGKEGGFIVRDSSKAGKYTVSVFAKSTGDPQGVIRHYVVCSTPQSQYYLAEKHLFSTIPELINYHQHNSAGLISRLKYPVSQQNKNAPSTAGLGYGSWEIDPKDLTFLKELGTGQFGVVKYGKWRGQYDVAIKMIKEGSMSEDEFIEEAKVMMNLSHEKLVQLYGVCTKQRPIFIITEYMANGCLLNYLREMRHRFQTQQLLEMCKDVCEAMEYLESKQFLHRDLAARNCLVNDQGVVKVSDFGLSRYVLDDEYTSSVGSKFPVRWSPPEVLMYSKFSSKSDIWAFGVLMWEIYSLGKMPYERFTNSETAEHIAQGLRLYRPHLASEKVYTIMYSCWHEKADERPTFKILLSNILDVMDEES

Regarding `C=CC(=O)N(C)CCOc1c(N)ncnc1-c1cc(F)cc(NC(=O)c2sc3c(c2F)CC(C)(C)C3)c1C` [Example 6, N-(3-(6-amino-5-(2-(N-methacrylamido)ethoxy)pyrimidin-4-yl)-5-fluoro-2-methylphenyl)-3-fluoro-5,5-dimethyl-5,6-dihydro-4H-cyclopenta[b]thiophene-2-carboxamide], the IC50 under setting [1] was 6.3 nM. Take `C=CC(=O)N(C)CCOc1c(N)ncnc1-c1cc(F)cc(NC(=O)c2sc3c(c2F)C2(CC3)CC2)c1C` [Example 26-2, N-(3-(6-amino-5-(2-(N-methacrylamido)ethoxy)pyrimidin-4-yl)-5-fluoro-2-methylphenyl)-3-fluoro-5,6-dihydrospiro[cyclopenta[b]thiophene-4,1'-cyclopropane]-2-carboxamide]: the IC50 under setting [1] was 6.15 nM. As for `C=CC(=O)N1C[C@H](OC)C[C@H]1COc1c(N)ncnc1-c1cc(F)cc(NC(=O)c2ccc3c(c2F)OCC3(C)C)c1C` [Example 33, N-(3-(5-(((2S,4R)-1-acryloyl-4-methoxypyrrolidin-2-yl)methoxy)-6-aminopyrimidin-4-yl)-5-fluoro-2-methylphenyl)-7-fluoro-3,3-dimethyl-2,3-dihydrobenzofuran-6-carboxamide], the IC50 (2 nM BTK, 10 µM ATP, 0.5 hours preincubation at 25°C; read-out: IC50 values of inhibitory activity against BTK) came out at 1.25 nM.

In general, IC50 refers to the concentration at which inhibition is half-maximal.
